“Also recorded” adds a separate entry of the source. Where two headings read alike, the source gives them in different places. One block for each molecule: values may come before it.
Key:
[1] = Protocol: Antibody stock solution (infliximab) was prepared in PBS at a 2 mg/ml concentration. 5-ALA was prepared at concentrations 10, 20 or 40 mg/ml. Methyl-ALA, hexyl-ALA, salcaprozate sodium, (SNAC) and sodium chenodeoxycholate were prepared at 20 mg/ml concentrations. The base L-arginine was prepared at 11, 22 or 44 mg/ml, and the stabiliser aprotinin was prepared at a 2 mg/ml concentration.
A 300×8.0-mm YMC-Pack Diol-200 S-5 μm, 20 nm (YMC Co Ltd, Kyoto, Japan) size exclusion (SE) chromatography column was used for sample separation using phosphate buffer saline (pH 7.3) prepared in sterile HPLC grade water as the mobile phase for elution, at a flow rate of 0.5 ml/min. The analysis was operated at room temperature and UV detection wavelength was set at 214 nm. Each sample was run for 40 minutes to allow complete elution of the sample proteins and reduce run-over.
Stability of the drug infliximab in rat caecum slurry was measured with and without SNAC, sodium chenodeoxycholate, hexyl-ALA and aprotinin. Each experiment was conducted in duplicate/triplicate. The antibody remaining at different time points was measured by SE-HPLC.

[2] = Ussing chamber penetration of oxytocin into rat small intestine tissue, RP-HPLC; details: 2 h, Examples 12-14
Protocol: (§1) The chambers are made of solid acrylic and supports the tissue membrane in such a way that each side of the membrane is isolated and faces a different chamber representing the luminal (apical) and blood (basal) compartments. The working system consists of a unit to fit a maximum of six vertical chambers, a gas manifold for carbogen purging (95% O2, 5% CO2) and a heater block to maintain the temperature of the chambers at 37° C. during the experiments with the use of a circulating water bath. The chambers are two-piece assemblies held together by a high spring-tension retaining ring to ensure leak-free operation during the experiments. […]
(§2) For the tissue penetration studies, the freshly excised small intestine (jejunum) and proximal colon tissue of healthy wistar rats was collected and transferred to an ice-cold solution of Krebs-Bicarbonate Ringer solution (KBr) of pH 7.4. […] The TEER was continuously monitored during the experiment to confirm the viability and integrity of the tissue. […]
(§3) Permeability of the drug oxytocin across rat small intestine (jejunum) and colon tissue was measured with and without 5-ALA. The peptide in the tissue at 2 h and was measured by RP-HPLC.
Permeability of oxytocin across rat small intestine (jejunum) was measured with and without 5-ALA, methyl-ALA and hexyl-ALA. The peptide in the tissue at 2 h and was measured by RP-HPLC. […]

[3] = Ussing chamber penetration of infliximab into rat colon tissue, ELISA; details: 2 h
Protocol: as §1, §2
(§4) Infliximab sample analysis (permeability studies) was performed using an indirect ELISA platform assay. […] The plate was read at a wavelength of 650 nm with the plate reader (Synergy LX Multimode Reader, Biotek).
(§5) Permeability of the drug infliximab across rat small intestine (jejunum) and colon tissue was measured with and without 5-ALA and the base, L-arginine. […]

[4] = Stability of oxytocin in rat caecum slurry, RP-HPLC; details: for remaining at 2 h, 1 mg/ml: Wistar, rat, pH 5.5, % Drug at T = 2 h, oxytocin 1 mg/ml, aprotinin 1 mg/ml in rat caecum slurry; for effect of the excipient on oxytocin stability, in words: rat caecum slurry, Examples 6 and 7
Protocol: The rat caecum slurry was based on combination of cecum and proximal colon fluids collected from healthy wistar rats weighing 250 g. The fluids were collected immediately after sacrificing the rats and transferred to an anaerobic workstation (Electrotek 500TG™ workstation, Electrotek, West Yorkshire, UK) maintained at 37° C. and 70% relative air humidity. The fluids were diluted with freshly prepared basal medium to obtain a 50% w/w caecum fluid by homogenization. The homogenized mixture was sieved through an open mesh fabric. The pH of the fluid was measured as 5.5.
Peptide stock solution (oxytocin) were prepared in PBS at 2 mg/ml concentrations. Concentrations of 10 mg/ml and 40 mg/ml 5-ALA, 40 mg/ml methyl-ALA, 40 mg/ml hexyl-ALA and 2 mg/ml aprotinin were prepared. Stock solutions containing certain oxytocin combinations were added to 50% rat caecum slurry to obtain incubation concentrations (Examples 6 and 7) of 1 mg/ml peptide, 5 mg/ml or 20 mg/ml 5-ALA, 20 mg/ml methyl-ALA, 20 mg/ml hexyl-ALA, 1 mg/ml aprotinin, and 25% w/w rat caecum slurry. Samples were withdrawn at appropriate time points and added to 0.1N HCl solution in a ratio of 1:3. The samples were centrifuged at 9.6 g for 10 mins and the supernatant was analysed by reversed phase-HPLC (RP-HPLC).
A 150×4.6-mm Luna 5 μm C18 100 Å (Phenomenex, Torrance, CA) column was used using a gradient system as below:
Each sample's injection volume was 20 μl, the mobile phase flow rate was 1 ml/min and the peptide was detected at 214 nm. Each sample was run for 23 mins.
Stability of the drug oxytocin in rat caecum slurry was measured with and without 5-ALA and aprotinin, an enzyme inhibitor. Each experiment was conducted in duplicate/triplicate. The oxytocin remaining at different time points was measured by RP-HPLC.
Stability of the drug oxytocin in rat caecum slurry was measured with and without methyl-ALA, hexyl-ALA and aprotinin, an enzyme inhibitor. Each experiment was conducted in duplicate/triplicate. The oxytocin remaining at different time points was measured by RP-HPLC.

[5] = Ussing chamber penetration of oxytocin into rat colon tissue, RP-HPLC; format: in vitro ADME; details: Example 12
Protocol: as §1, §2, §3

[6] = Stability of infliximab in human colon fluid (human colon model), SE-HPLC; format: in vitro ADME; details: for effect of the excipient on infliximab stability, in words: human colon fluid, Examples 1 and 4
Protocol: A human colonic model based on a mixed faecal inoculum was used to mimic the luminal environment of the human large intestine. […] The basal media provides nutrients and growth factors to the microbiota allowing viability for up to 24 hours. The homogenized bacterial media was sieved through an open mesh fabric (SefarNitex™, pore size 350 μm) to remove any nonhomogeneous fibrous material. The pH was maintained at approximately 7.0 to mimic the colonic luminal pH of the human.
Stability of the drug/antibody infliximab in human colon fluid was measured with and without 5-ALA at varying concentrations. Each experiment was conducted in duplicate/triplicate.
Stability of the drug infliximab in human colon fluid was measured with and without 5-ALA and L-arginine at varying concentrations. Each experiment was conducted in duplicate/triplicate.
Stability of the drug infliximab in human colon fluid was measured with and without 5-ALA and aprotinin at varying pH. Each experiment was conducted in duplicate/triplicate.
Each experiment was conducted in duplicate/triplicate.

[7] = Ussing chamber penetration of infliximab into rat small intestine tissue, ELISA; details: 2 h, Examples 8-10
Protocol: as §1, §2, §4, §5

[8] = Example 1, infliximab 1 mg/ml in human colon fluid, 5-ALA.HCl 5 mg/ml (pH 5.5), 10 mg/ml (pH 4.9), 20 mg/ml (pH 4.1)
[9] = Example 2, infliximab 1 mg/ml in human colon fluid, 5-ALA phosphate + L-arginine 5 + 5.5 mg/ml (pH 6.4), 10 + 11 mg/ml (6.5), 20 + 22 mg/ml (pH 6.5), 5-ALA phosphate 20 mg/ml + NaOH (pH 6.4)
[10] = Example 4, infliximab 1 mg/ml, 5-ALA.HCl / methyl-ALA / hexyl-ALA 10 mg/ml, aprotinin 1 mg/ml in human colon fluid, pH 6.5

- effect of the excipient on infliximab stability, in words [1]: provide no stabilisation
Molecule: C[C@H](CCC(=O)[O-])[C@H]1CC[C@H]2[C@@H]3[C@H](O)C[C@@H]4C[C@H](O)CC[C@]4(C)[C@H]3CC[C@]12C.[Na+] [sodium chenodeoxycholate]

Molecule: aprotinin
- effect of the excipient on infliximab stability, in words [1]: provides an antibody stabilisation effect

Molecule: CCCCCCCCCC(=O)[O-].[Na+] [sodium caprate]
- effect of the excipient on oxytocin permeation / tissue level, in words [2]: greatest increase in oxytocin tissue levels
- effect of the excipient on infliximab tissue level, in words ([3]; rat colon tissue pre-treated with NAC, Example 11): may have led to increased tissue levels of antibody

- effect of the excipient on infliximab stability, in words [1]: provide no stabilisation
Molecule: O=C([O-])CCCCCCCNC(=O)c1ccccc1O.[Na+] [SNAC, salcaprozate sodium]

- remaining at 2 h, 1 mg/ml ([4]; Example 6, 5-ALA.HCl 20 mg/ml): 10.9 ± 3.4%
- remaining at 2 h, 1 mg/ml ([4]; Example 7, methyl-ALA / hexyl-ALA 20 mg/ml): 5 ± 2%
- % Drug in colon tissue at 2 h ([5]; oxytocin 1 mg/ml, 5-ALA.HCl 20 mg/ml): 0.0 ± 0.0%
Molecule: CC[C@H](C)[C@@H]1NC(=O)[C@H](Cc2ccc(O)cc2)NC(=O)[C@@H](N)CSSC[C@@H](C(=O)N2CCC[C@H]2C(=O)N[C@@H](CC(C)C)C(=O)NCC(N)=O)NC(=O)[C@H](CC(N)=O)NC(=O)[C@H](CCC(N)=O)NC1=O [Oxytocin]

Molecule: Infliximab: monoclonal antibody; existing commercial IBD therapeutic antibody, tested alone as control
- % Drug at T = 2 h [6, 8]: 21.5 ± 0.0%
- % Drug at T = 4 h [6, 8]: 7.8 ± 0.0%
- % Drug at T = 2 h [6, 9]: 16.5 ± 0.4%
- % Drug at T = 4 h [6, 9]: 6.5 ± 0.3%
- % Drug at T = 2 h [6, 10]: 37.6 ± 3.5%
- % Drug at T = 4 h [6, 10]: 16.1 ± 0.6%

Molecule: CCCCCCOC(=O)CCC(=O)CN [hexyl-ALA, hexyl aminolevulinic acid]
- effect of the excipient on oxytocin stability, in words [4]: provide some peptide stabilisation
- effect of the excipient on infliximab stability, in words [1]: provide good antibody stability
- effect of the excipient on infliximab stability, in words [6]: greater antibody stabilisation

Molecule: COC(=O)CCC(=O)CN [methyl-ALA, methyl aminolevulinic acid]
- effect of the excipient on infliximab stability, in words [6]: greater antibody stabilisation

Molecule: NCC(=O)CCC(=O)O [Formulation 5-ALA, 5-aminolevulinic acid]
- effect of the excipient on oxytocin stability, in words [4]: acts as a stabiliser and increases the amount of peptide present in the caecum slurry
- effect of the excipient on infliximab permeation / tissue uptake, in words [7]: did not lead to permeation or improved tissue uptake of infliximab
- effect of the excipient on infliximab stability, in words [6]: provides antibody stability; also recorded: does not stabilize the antibody in a dose dependent manner
- effect of the excipient on infliximab permeation / tissue uptake, in words ([3]; rat colon tissue, Example 8): did not lead to permeation or improved tissue uptake of infliximab
- effect of the excipient on oxytocin permeation / tissue level, in words ([5]; rat colon tissue, 2 h): acts as a permeability enhancer and increases the amount of oxytocin

— patent publication US20250152706A1, “COMPOSITIONS FOR ORAL DELIVERY OF BIOTHERAPEUTICS” (INTRACT PHARMA LIMITED, priority 2022, published 2025)
